Measured values taken from patent US20240083903A1, “ARYL ETHER COMPOUNDS AS TEAD MODULATORS” (Merck Sharp& Dohme LLC, priority 2021, published 2024).

Test system: TEAD Reporter-MCF7 cell line
Assay: YAP/TEAD cellular activity assay: inhibition of TEAD-Luc activity in TEAD Reporter-MCF7 cell line
Type: cell-based, human
Settings: Homo sapiens, MCF7, 24 h, TEAD Reporter-MCF7 cells, 24 hours incubation with compound, luciferase readout
Description: YAP/TEAD Cellular Activity Assay
Quantitation of Compound Potency on the Inhibition of TEAD-Luc Activity in TEAD Reporter-MCF7 Cell Line.
The TEAD Reporter-MCF7 cell line containing the firefly luciferase gene under the control of TEAD responsive elements stably integrated into the human breast cancer cell line was purchased from BPS Bioscience (Cat #60618). The cells were cultured with complete culture medium ([…], 1 mM sodium pyruvate, 10% fetal bovine serum, 10 ng/mL insulin and 400 ug/mL G418 sulfate) prior to the assay. For the assay, the cells were harvested, resuspended in the complete culture medium without G418, and seeded into white solid bottom 384-well cell culture microplates in 25 uL with 10,000 cells per well. The plates were incubated at 37° C. in a CO2 incubator for 20-24 hours and the compounds were then transferred from Echo LDV plates directly into the 384-well white tissue culture plates with an Echo. The plates were incubated at 37° C. in a CO2 incubator for 24 hours and equal volume of ONE-Glo™ EX Luciferase reagent (Promega, Cat #E8150) was added. After mixing on a shaker at room temperature for 10 minutes, the luciferase activity was measured with an Envision. The percentage inhibition and EC50 values of compounds were calculated with Spotfire.
Required Materials • 1. TEAD reporter-MCF-7 Cells (BPS Bioscience, #60618) • 2. Complete Cell Culture Medium (without selection antibiotics) • EMEM 89% (ATCC, #30-2003) • FBS 10% (Hyclone, #SH30088.03) • 1% Non essential amino acids (Gibco, • 1 mM sodium pyruvate (Gibco, • Pen/Strep, 1% (Gibco, #15140-122) • 10 ng/mL insulin (Sigma, #10516) • 3. Complete Cell Culture Medium (with selection antibiotics) • EMEM 89% (ATCC, #30-2003) • F1% Non essential amino acids (Gibco, • 1 mM sodium pyruvate (Gibco, • BS 10% (Hyclone, #SH30088.03) • 10 ng/mL insulin (Sigma, #10516) • 400 ug/mL G418 sulfate (Agilent, #200049-21) • 4. Miscellaneous tissue culture equipment and reagents. • 5. White solid 384-well tissue culture plate (Greiner, Cat #781080) • 6. One Glo EX luciferase assay system (Promega, #E8150)
The following table tabulates the biological data disclosed for the current invention. The biological data was collected using the methodology described above. For each compound, TEAD-Luc EC50 values are listed in nanomolar (nM) concentration units.

Structure (SMILES) | EC50 [nM]
CNS(=O)(=O)c1ccc(Oc2ccc(C(F)(F)F)cc2)c(-c2ccc3c(c2)C(=O)N(CC2CC2)C3)c1 [2-11, 3-[2-(cyclopropylmethyl)-3-oxo-2,3-dihydro-1H-isoindol-5-yl]-N-methyl-4-[4-(trifluoromethyl)phenoxy]benzene-1-sulfonamide] | 338
CNS(=O)(=O)c1ccc(Oc2ccc(C(F)(F)F)cc2)c(-c2cccc3nc(N)[nH]c23)c1 [2-13, 3-(2-amino-1H-benzimidazol-7-yl)-N-methyl-4-[4-(trifluoromethyl)phenoxy]benzene-1-sulfonamide] | 3650
CNS(=O)(=O)c1ccc(Oc2ccc(C(F)(F)F)cc2)c(-c2ccc3c(c2)OCO3)c1 [2-14, 3-(2H-1,3-benzodioxol-5-yl)-N-methyl-4-[4-(trifluoromethyl)phenoxy]benzene-1-sulfonamide] | 247
CNS(=O)(=O)c1ccc(Oc2ccc(C(F)(F)F)cc2)c(-c2cnn3c2CCCC3)c1 [2-16, N-methyl-3-(4,5,6,7-tetrahydropyrazolo[1,5-a]pyridin-3-yl)-4-[4-(trifluoromethyl)phenoxy]benzene-1-sulfonamide] | 631
CNS(=O)(=O)c1ccc(Oc2ccc(C(F)(F)F)cc2)c(-c2cnc3c(c2)OCCN3C)c1 [2-18, N-methyl-3-(4-methyl-3,4-dihydro-2H-pyrido[3,2-b][1,4]oxazin-7-yl)-4-[4-(trifluoromethyl)phenoxy]benzene-1-sulfonamide] | 606
CNS(=O)(=O)c1ccc(Oc2ccc(C(F)(F)F)cc2)c(-c2cccc3cnccc23)c1 [2-20, 3-(isoquinolin-5-yl)-N-methyl-4-[4-(trifluoromethyl)phenoxy]benzene-1-sulfonamide] | 4780
CNS(=O)(=O)c1ccc(Oc2ccc(C(F)(F)F)cc2)c(-c2cc3ccc(C)nc3cc2OC)c1 [2-21, 3-(7-methoxy-2-methylquinolin-6-yl)-N-methyl-4-[4-(trifluoromethyl)phenoxy]benzene-1-sulfonamide] | 9780
CNS(=O)(=O)c1ccc(Oc2ccc(C(F)(F)F)cc2)c(-c2cc3c(cc2F)N(C)C(=O)CC3)c1 [2-23, 3-(7-fluoro-1-methyl-2-oxo-1,2,3,4-tetrahydroquinolin-6-yl)-N-methyl-4-[4-(trifluoromethyl)phenoxy]benzene-1-sulfonamide] | 3640
CNc1ncc2cc(-c3cc(S(=O)(=O)NC)ccc3Oc3ccc(C(F)(F)F)cc3)ccc2n1 [2-25, N-methyl-3-[2-(methylamino)quinazolin-6-yl]-4-[4-(trifluoromethyl)phenoxy]benzene-1-sulfonamide] | 232
CNS(=O)(=O)c1ccc(Oc2ccc(C(F)(F)F)cc2)c(-c2cccc3c2OCC(=O)N3)c1 [2-26, N-methyl-3-(3-oxo-3,4-dihydro-2H-1,4-benzoxazin-8-yl)-4-[4-(trifluoromethyl)phenoxy]benzene-1-sulfonamide] | 3180
CNS(=O)(=O)c1ccc(Oc2ccc(C(F)(F)F)cc2)c(-c2ccc3nccnc3c2)c1 [2-27, N-methyl-3-(quinoxalin-6-yl)-4-[4-(trifluoromethyl)phenoxy]benzene-1-sulfonamide] | 410
CNS(=O)(=O)c1ccc(Oc2ccc(C(F)(F)F)cc2)c(-c2ccc3c(c2)OCC(=O)N3)c1 [2-28, N-methyl-3-(3-oxo-3,4-dihydro-2H-1,4-benzoxazin-7-yl)-4-[4-(trifluoromethyl)phenoxy]benzene-1-sulfonamide] | 5230
CNS(=O)(=O)c1ccc(Oc2ccc(C(F)(F)F)cc2)c(-c2ccc3nc(OC)ccc3c2)c1 [2-29, 3-(2-methoxyquinolin-6-yl)-N-methyl-4-[4-(trifluoromethyl)phenoxy]benzene-1-sulfonamide] | 89.7
CNS(=O)(=O)c1ccc(Oc2ccc(C(F)(F)F)cc2)c(-c2ccc3nc(C)ccc3c2)c1 [2-31, N-methyl-3-(2-methylquinolin-6-yl)-4-[4-(trifluoromethyl)phenoxy]benzene-1-sulfonamide] | 663
CNS(=O)(=O)c1ccc(Oc2ccc(SC(F)(F)F)cc2)c(-c2cnn3c2CCC3)c1 [3-1, 3-(5,6-Dihydro-4H-pyrrolo[1,2-b]pyrazol-3-yl)-N-methyl-4-(4-((trifluoromethyl)thio)phenoxy)benzenesulfonamide] | 447
CNS(=O)(=O)c1ccc(Oc2cc(F)cc(C(F)(F)F)c2)c(-c2cnn3c2CCC3)c1 [3-3, 3-(5,6-dihydro-4H-pyrrolo[1,2-b]pyrazol-3-yl)-4-[3-fluoro-5-(trifluoromethyl)phenoxy]-N-methylbenzene-1-sulfonamide] | 2080
CNS(=O)(=O)c1ccc(Oc2ccc(OC(F)(F)F)cc2)c(-c2cnn3c2CCC3)c1 [3-4, 3-(5,6-dihydro-4H-pyrrolo[1,2-b]pyrazol-3-yl)-N-methyl-4-[4-(trifluoromethoxy)phenoxy]benzene-1-sulfonamide] | 618
CNS(=O)(=O)c1ccc(Oc2cccc(OC(F)(F)F)c2)c(-c2cnn3c2CCC3)c1 [3-5, 3-(5,6-dihydro-4H-pyrrolo[1,2-b]pyrazol-3-yl)-N-methyl-4-[3-(trifluoromethoxy)phenoxy]benzene-1-sulfonamide] | 3090

Second part, the compound after the results:

EC50 [nM] | Structure (SMILES)
2420 | CNS(=O)(=O)c1ccc(Oc2ccc(C(F)(F)F)cc2)c(-c2cnc3[nH]ccc3c2)c1 [2-10, N-methyl-3-(1H-pyrrolo[2,3-b]pyridin-5-yl)-4-[4-(trifluoromethyl)phenoxy]benzene-1-sulfonamide]
2860 | CNS(=O)(=O)c1ccc(Oc2ccc(C(F)(F)F)cc2)c(-c2ccc3ncn(C4CC4)c3c2)c1 [2-12, 3-(1-cyclopropyl-1H-benzimidazol-6-yl)-N-methyl-4-[4-(trifluoromethyl)phenoxy]benzene-1-sulfonamide]
336 | CNS(=O)(=O)c1ccc(Oc2ccc(C(F)(F)F)cc2)c(-c2ccc3c(cnn3C)c2)c1 [2-15, N-methyl-3-(1-methyl-1H-indazol-5-yl)-4-[4-(trifluoromethyl)phenoxy]benzene-1-sulfonamide]
590 | CNS(=O)(=O)c1ccc(Oc2ccc(C(F)(F)F)cc2)c(-c2cnn3c2OCC(C)C3)c1 (stereo not drawn) [2-17, N-methyl-3-(6-methyl-6,7-dihydro-5H-pyrazolo[5,1-b][1,3]oxazin-3-yl)-4-[4-(trifluoromethyl)phenoxy]benzene-1-sulfonamide]
8860 | CNS(=O)(=O)c1ccc(Oc2ccc(C(F)(F)F)cc2)c(-c2cncc3ccccc23)c1 [2-19, 3-(isoquinolin-4-yl)-N-methyl-4-[4-(trifluoromethyl)phenoxy]benzene-1-sulfonamide]
92.6 | CNS(=O)(=O)c1ccc(Oc2ccc(C(F)(F)F)cc2)c(-c2ccc3c(c2)NC(=O)CO3)c1 [2-22, N-methyl-3-(3-oxo-3,4-dihydro-2H-1,4-benzoxazin-6-yl)-4-[4-(trifluoromethyl)phenoxy]benzene-1-sulfonamide]
273 | CNS(=O)(=O)c1ccc(Oc2ccc(C(F)(F)F)cc2)c(-c2ccc3cccnc3c2)c1 [2-24, N-methyl-3-(quinolin-7-yl)-4-[4-(trifluoromethyl)phenoxy]benzene-1-sulfonamide]
675 | CNS(=O)(=O)c1ccc(Oc2ccc(C(F)(F)F)cc2)c(-c2cnc3cccnc3c2)c1 [2-30, N-methyl-3-(1,5-naphthyridin-3-yl)-4-[4-(trifluoromethyl)phenoxy]benzene-1-sulfonamide]
7570 | CNS(=O)(=O)c1ccc(Oc2ccc(C(F)(F)F)cc2)c(-c2ccc3c(=O)nc[nH]c3c2)c1 [2-32, N-methyl-3-(4-oxo-1,4-dihydroquinazolin-7-yl)-4-[4-(trifluoromethyl)phenoxy]benzene-1-sulfonamide]
356 | CNS(=O)(=O)c1ccc(Oc2ccc(C(F)F)cc2)c(-c2cnn3c2OCC3)c1 [2-33, 4-[4-(difluoromethyl)phenoxy]-3-(2,3-dihydropyrazolo[5,1-b] [1,3]oxazol-7-yl)-N-methylbenzene-1-sulfonamide]
9140 | CNS(=O)(=O)c1ccc(Oc2cc(C(F)(F)F)cc(C(F)(F)F)c2)c(-c2cnn3c2CCC3)c1 [3-2, 4-[3,5-bis(trifluoromethyl)phenoxy]-3-(5,6-dihydro-4H-pyrrolo[1,2-b]pyrazol-3-yl)-N-methylbenzene-1-sulfonamide]
508 | CNS(=O)(=O)c1ccc(Oc2ccc(CC(F)(F)F)cc2)c(-c2cnn3c2CCC3)c1 [3-6, 3-(5,6-dihydro-4H-pyrrolo[1,2-b]pyrazol-3-yl)-N-methyl-4-[4-(2,2,2-trifluoroethyl)phenoxy]benzene-1-sulfonamide]
